Laboratory results: ChEMBL document CHEMBL5055679, “Discovery of a Novel Androgen Receptor Antagonist Manifesting Evidence to Disrupt the Dimerization of the Ligand-Binding Domain via Attenuating the Hydrogen-Bonding Network Between the Two Monomers” (J Med Chem, 2021)
Active and inactive are the calls of the source. No cut-off for these calls is given here.

Organism: Homo sapiens
Assay: Antagonist activity at human androgen receptor N756A mutant at 10 uM by dual-Glo luciferase assay
Details: filed as antagonist

Row | SMILES | Activity
1 | CC(O)c1cc(C(=O)N[C@@H](C)Cn2ccc(-c3ccc(C#N)c(Cl)c3)n2)n[nH]1 (stereo partly drawn) | Active
2 | CNC(=O)c1ccc(N2C(=S)N(c3cnc(C#N)c(C(F)(F)F)c3)C(=O)C23CCC3)cc1F | Active
3 | CNC(=O)c1ccc(N2C(=S)N(c3ccc(C#N)c(C(F)(F)F)c3)C(=O)C2(C)C)cc1F [ENZALUTAMIDE] | Active

What follows are compounds tested on NIH3T3 (assay: Cytotoxicity against mouse NIH3T3 cells assessed as reduction in cell viability incubated for 72 hrs by MTT assay). Details: nih3t3, 72 h.
Format: cell-based

Row | SMILES | Activity
4 | CNC(=O)c1ccc(N2C(=S)N(c3ccc(C#N)c(C(F)(F)F)c3)C(=O)C2(C)C)cc1F [ENZALUTAMIDE] | Non-Toxic

What follows are compounds tested against T1, Androgen receptor (Homo sapiens) (UniProt P10275) (assay: Inhibition of AR transcriptional activity in human LNCaP cells harboring ARR2PB-eGFP at 10 uM incubated for 72 hrs by fluorescence assay). Details: filed as antagonist.
T1 sequence (whole entry): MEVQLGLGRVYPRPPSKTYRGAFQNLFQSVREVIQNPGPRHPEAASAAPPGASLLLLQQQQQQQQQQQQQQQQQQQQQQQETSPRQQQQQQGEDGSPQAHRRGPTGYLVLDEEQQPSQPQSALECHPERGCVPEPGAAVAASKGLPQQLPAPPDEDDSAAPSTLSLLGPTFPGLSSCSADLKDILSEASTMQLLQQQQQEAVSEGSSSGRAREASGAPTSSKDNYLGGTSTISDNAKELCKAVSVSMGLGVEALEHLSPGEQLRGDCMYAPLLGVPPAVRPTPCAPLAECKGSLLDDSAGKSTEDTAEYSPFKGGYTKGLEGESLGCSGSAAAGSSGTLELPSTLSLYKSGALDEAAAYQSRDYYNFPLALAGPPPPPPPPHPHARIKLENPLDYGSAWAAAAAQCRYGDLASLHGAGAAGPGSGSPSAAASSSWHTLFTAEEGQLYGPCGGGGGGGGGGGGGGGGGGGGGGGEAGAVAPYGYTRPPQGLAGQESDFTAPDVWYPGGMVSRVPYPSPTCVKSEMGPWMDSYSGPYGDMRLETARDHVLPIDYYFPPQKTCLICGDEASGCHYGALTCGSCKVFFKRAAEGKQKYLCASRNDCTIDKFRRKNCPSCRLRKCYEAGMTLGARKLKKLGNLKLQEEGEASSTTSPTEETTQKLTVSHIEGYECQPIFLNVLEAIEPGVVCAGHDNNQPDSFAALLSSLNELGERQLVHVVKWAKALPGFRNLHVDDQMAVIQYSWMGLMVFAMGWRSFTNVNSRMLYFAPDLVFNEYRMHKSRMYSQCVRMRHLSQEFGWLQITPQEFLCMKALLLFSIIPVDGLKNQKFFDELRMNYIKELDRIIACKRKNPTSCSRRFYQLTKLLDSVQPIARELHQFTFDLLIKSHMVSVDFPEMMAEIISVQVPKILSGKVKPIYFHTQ
Format: cell-based

Row | SMILES | inhibition [%]
5 | O=c1cc(C(F)(F)F)c2ccc(/N=C/c3ccccc3O)cc2o1 | 40
6 | O=C1C2CC=CCC2C(=O)N1c1cccc(C(F)(F)F)c1 (stereo not drawn) | 40
7 | CC(C(=O)Nc1ccccc1Cl)c1ccc(-c2ccccc2)c(F)c1 (stereo not drawn) | 40
8 | Cc1ccc(NCc2ccccc2OCc2cccc3ccccc23)cc1 | 40

Each compound was assayed against T2, Androgen receptor (Homo sapiens, UniProt P10275). Details: not given.
T2 sequence (P10275 whole entry): T1 sequence (whole entry)

Row | SMILES | IC50 [µM]
9 | O=c1cc(C(F)(F)F)c2ccc(/N=C/c3ccccc3O)cc2o1 | 1.66

Each compound was assayed against T1, Androgen receptor (Homo sapiens) (assay: Binding affinity to GST-tagged AR ligand binding domain (unknown origin) at 10 uM measured after 4 hrs by fluorescence polarization assay). Details: not given.

Row | SMILES | Activity
10 | CC(C(=O)Nc1ccccc1Cl)c1ccc(-c2ccccc2)c(F)c1 (stereo not drawn) | inactive
11 | Cc1ccc(NCc2ccccc2OCc2cccc3ccccc23)cc1 | inactive

Same assay, conditions: filed as antagonist

Row | SMILES | Activity
12 | O=c1cc(C(F)(F)F)c2ccc(/N=C/c3ccccc3O)cc2o1 | Active
13 | O=C1C2CC=CCC2C(=O)N1c1cccc(C(F)(F)F)c1 (stereo not drawn) | Active

These compounds were tested against T2, Androgen receptor (assay: Inhibition of AR transcriptional activity in human LNCaP cells harboring ARR2PB-eGFP assessed as decrease in PSA level). Details: not given.
Format: cell-based, LN-18

Row | SMILES | IC50 [µM]
14 | O=c1cc(C(F)(F)F)c2ccc(/N=C/c3ccccc3O)cc2o1 | 3.71

These compounds were tested on LNCaP (assay: Inhibition of colony formation in human LANCaP cells after 2 weeks by crystal violet staining based assay). Details: dose 2-20 µM.
Format: functional, cell-based

Row | SMILES | inhibition
15 | CNC(=O)c1ccc(N2C(=S)N(c3ccc(C#N)c(C(F)(F)F)c3)C(=O)C2(C)C)cc1F [ENZALUTAMIDE] | Dose-dependent effect

These compounds were tested against T2, Androgen receptor (assay: Inhibition of AR transcriptional activity in human LNCaP cells harboring ARR2PB-eGFP incubated for 72 hrs by fluorescence assay). Details: not given.
Format: cell-based

Row | SMILES | IC50 [µM]
16 | Cn1cc(C(=O)Nc2ccc3c(C(F)(F)F)cc(=O)oc3c2)cn1 | > 50
17 | COC(=O)c1ccc(COc2ccc3c(C(F)(F)F)cc(=O)oc3c2)cc1 | 30.7
18 | O=c1cc(C(F)(F)F)c2ccc(/N=C/c3ccccc3O)cc2o1 | 5.57
19 | Oc1ccccc1/C=N/c1ccc2oc(-c3ccccc3)nc2c1 | > 50
20 | O=c1cc(C(F)(F)F)c2ccc(OCc3ccc4ccccc4c3)cc2o1 | > 50
21 | COC(=O)C(CC(C)C)Oc1ccc2c(C(F)(F)F)cc(=O)oc2c1 (stereo not drawn) | > 50
22 | O=c1cc(C(F)(F)F)c2ccc(OCc3ccccc3Cl)cc2o1 | 0.41
23 | O=c1cc(C(F)(F)F)c2ccc(OCc3cccnc3)cc2o1 | > 50
24 | O=c1cc(C(F)(F)F)c2ccc(OCc3ccc(-c4ccccc4)cc3)cc2o1 | > 50
25 | COc1ccc([N+](=O)[O-])cc1COc1ccc2c(C(F)(F)F)cc(=O)oc2c1 | > 50
26 | O=c1cc(C(F)(F)F)c2ccc(OCc3ccc([N+](=O)[O-])cc3)cc2o1 | > 50
27 | Cc1cccc(COc2ccc3c(C(F)(F)F)cc(=O)oc3c2)c1 | 1.4
28 | CC(C)c1ccc(COc2ccc3c(C(F)(F)F)cc(=O)oc3c2)cc1 | 9.26
29 | O=c1cc(C(F)(F)F)c2ccc(OCc3cccc(Br)c3)cc2o1 | 2.28
30 | O=C(Nc1ccc2c(C(F)(F)F)cc(=O)oc2c1)c1nc2ncccn2n1 | > 50
31 | O=c1cc(C(F)(F)F)c2ccc(OCc3ccncc3)cc2o1 | 1.9
32 | O=C(Oc1ccc2c(C(F)(F)F)cc(=O)oc2c1)C1CCCCC1 | > 50
33 | Cc1cccc(C(=O)Nc2ccc3c(C(F)(F)F)cc(=O)oc3c2)c1 | > 50
34 | O=c1cc(C(F)(F)F)c2ccc(OCc3ccccc3)cc2o1 | 1.18
35 | NC(=O)c1ccc(COc2ccc3c(C(F)(F)F)cc(=O)oc3c2)cc1 | > 50
36 | O=c1cc(C(F)(F)F)c2ccc(OCc3ccc(OC(F)(F)F)cc3)cc2o1 | 25.1
37 | O=c1cc(C(F)(F)F)c2ccc(OCc3ccc4c(c3)OCO4)cc2o1 | 9.37
38 | O=C(c1ccccc1)c1ccc(/N=C/c2ccccc2O)cc1 | > 50
39 | O=C(Nc1ccc2c(C(F)(F)F)cc(=O)oc2c1)c1cccc(Cl)c1 | > 50

Row | SMILES | IC50 [µM]
40 | C[C@H](Oc1cc(Cl)ccc1Cl)C(=O)Nc1ccc2c(C(F)(F)F)cc(=O)oc2c1 | > 50
41 | CCOC(=O)C(CC)Oc1ccc2c(C(F)(F)F)cc(=O)oc2c1 (stereo not drawn) | > 50
42 | O=c1cc(C(F)(F)F)c2ccc(OCc3ccc(Cl)cc3)cc2o1 | 1.04
43 | Cn1cc(C(=O)Nc2ccc3c(C(F)(F)F)cc(=O)oc3c2)c(Br)n1 | > 50
44 | O=C(Nc1ccc2c(C(F)(F)F)cc(=O)oc2c1)c1ccccc1 | > 50
45 | CC(=O)c1ccc(COc2ccc3c(C(F)(F)F)cc(=O)oc3c2)cc1 | > 50
46 | O=c1cc(C(F)(F)F)c2ccc(OCc3ccccc3Br)cc2o1 | 0.94
47 | COc1ccc(COc2ccc3c(C(F)(F)F)cc(=O)oc3c2)cc1 | 1.62
48 | Cc1ccc(/N=C/c2ccccc2O)cc1Br | > 50
49 | O=C(Nc1ccc2c(C(F)(F)F)cc(=O)oc2c1)c1ccccc1F | > 50
50 | O=c1cc(C(F)(F)F)c2ccc(OCc3ccccc3F)cc2o1 | 0.92
51 | O=C(Nc1ccc2c(C(F)(F)F)cc(=O)oc2c1)c1ccccc1Cl | > 50
52 | O=c1cc(C(F)(F)F)c2ccc(OCc3ccc(F)cc3)cc2o1 | 0.47
53 | Cn1cc(C(=O)Nc2ccc3c(C(F)(F)F)cc(=O)oc3c2)c(I)n1 | > 50
54 | N#Cc1cccc(/N=C/c2ccccc2O)c1 | > 50
55 | O=c1cc(C(F)(F)F)c2ccc(OCc3c(F)cccc3Cl)cc2o1 | 0.78
56 | O=c1cc(C(F)(F)F)c2ccc(OCc3ccc(C(F)(F)F)cc3)cc2o1 | 0.89
57 | CCn1cc(C(=O)Nc2ccc3c(C(F)(F)F)cc(=O)oc3c2)c(C)n1 | > 50
58 | Cc1ccc(OC(=O)Nc2ccc3c(C(F)(F)F)cc(=O)oc3c2)c(C)c1 | > 50
59 | O=c1cc(C(F)(F)F)c2ccc(OCc3ccccn3)cc2o1 | > 50
60 | Cc1ccc(COc2ccc3c(C(F)(F)F)cc(=O)oc3c2)cc1 | 0.61
61 | Oc1ccccc1/C=N/c1ccc(Cl)c(Cl)c1 | > 50
62 | O=c1cc(C(F)(F)F)c2ccc(OCc3cc4c(cc3Cl)OCO4)cc2o1 | 1.47

The compounds below were run on GES1 (assay: Cytotoxicity against human GES1 cells assessed as reduction in cell viability incubated for 72 hrs by MTT assay). Details: ges1, 72 h.
Format: cell-based

Row | SMILES | Activity
63 | CNC(=O)c1ccc(N2C(=S)N(c3ccc(C#N)c(C(F)(F)F)c3)C(=O)C2(C)C)cc1F [ENZALUTAMIDE] | Non-Toxic
